In ChEMBL document CHEMBL1130459, “Conformational preference of the 6-acetyl group in novel anticonvulsant trans 4S-benzamido-benzo[b]pyran-3R-ols” (Bioorg Med Chem Lett, 1997):

Key:
Mus musculus [1] = species: Mus musculus; assay: Compound was evaluated for its binding affinity at the anticonvulsant binding site by displacement of [3H]- SB 204269 from mouse forebrain membranes; set-up: species or system Brain, Membrane
Mus musculus [2] = assay: Compound was tested in vivo for anticonvulsant activity in mouse MEST test (maximal electroshock seizure threshold) at a peroral dose of 10 mg/kg; type: functional; conditions: route oral
Mus musculus [3] = assay: Compound was tested in vivo for anticonvulsant activity in mouse MEST test (maximal electroshock seizure threshold) at a peroral dose of 30 mg/kg; type: functional; conditions: route oral

Row | SMILES | Log Ki (Mus musculus [1]) | Activity (Mus musculus [2]) | Activity (Mus musculus [3])
1 | CC(=O)c1ccc2c(c1C)[C@H](NC(=O)c1ccc(F)cc1)[C@@H](O)C(C)(C)O2 | -5.02 | – | –
2 | CC(=O)c1ccc2c(c1)[C@H](NC(=O)c1ccc(F)c(Cl)c1)[C@@H](O)C(C)(C)O2 | -7.91 | 138% | –
3 | CC(=O)c1cc2c(cc1C)OC(C)(C)[C@H](O)[C@H]2NC(=O)c1ccc(F)cc1 | -6.15 | – | –
4 | CC1(C)Oc2ccc3c(c2[C@H](NC(=O)c2ccc(F)cc2)[C@H]1O)CCCC3=O | < -5 | – | –
5 | CC1(C)Oc2cc3c(cc2[C@H](NC(=O)c2ccc(F)c(Cl)c2)[C@H]1O)C(=O)CCC3 | -7.6 | – | 98%
6 | CC(=O)c1ccc2c(c1)[C@H](NC(=O)c1ccc(F)cc1)[C@@H](O)C(C)(C)O2 [CARABERSAT] | -7.32 | – | –
